{"source": "patent US7816099B1", "about": "“Enzyme assay and use thereof” (Myrexis, Inc., priority 2005, dated 2010)", "key": {"Aurora-A": {"biological_target": "T1, Aurora-A (Homo sapiens, UniProt O14965)", "T1 construct": "Aurora-A(101-403) (the latter protein was generated by cleavage of the GST fusion precursor with thrombin); GST (cleaved yes); made in house", "T1 sequence (O14965 101-403)": "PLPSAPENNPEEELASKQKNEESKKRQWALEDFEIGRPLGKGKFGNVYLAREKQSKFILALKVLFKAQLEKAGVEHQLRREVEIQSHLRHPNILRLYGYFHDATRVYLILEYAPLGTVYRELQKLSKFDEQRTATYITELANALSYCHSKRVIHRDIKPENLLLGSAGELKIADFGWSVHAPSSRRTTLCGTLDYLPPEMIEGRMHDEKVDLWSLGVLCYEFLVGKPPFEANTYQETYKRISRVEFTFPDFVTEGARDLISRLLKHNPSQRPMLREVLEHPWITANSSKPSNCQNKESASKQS", "T1 sequence (Q9ULW0 1-50 partner limits assumed)": "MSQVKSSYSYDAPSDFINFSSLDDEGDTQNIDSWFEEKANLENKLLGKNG", "assay": "High throughput fluorometric assay for the TPX2-stimulated protein kinase activity of Aurora-A", "assay_type": "biochemical", "settings": "FIG. 4E; wild type or D274A mutant enzyme at 25 nM or 1.25 μM ADP; 5 μM ATP, 10 mM MgCl2", "method": "High throughput fluorometric assay for the TPX2-stimulated protein kinase activity of Aurora-A. All the experiments were conducted using 50 mM Tris-HCl, pH 7.5, 5 μM ATP, 10 mM MgCl2 as the assay buffer. The data shown on FIGS. 4A and 4B were generated using two-step assay procedure including Aurora-A-catalyzed kinase reaction followed by the assay of ADP produced. All other experiments were performed using single step assay format. FIG. 4A, comparative analysis of kinase activities of the wild type enzyme and D274A mutant protein performed in the absence of TPX-2. FIG. 4B, effects of GST-TPX2(1-50) on kinase activity. FIG. 4C, time course of signal development for the assays conducted using 25 nM kinase in the absence or in the presence of 50 nM GST-TPX2(1-50). The D274A mutant enzyme was used as negative control. FIG. 4D, time dependence of S/B ratio calculated using data shown on FIG. 4C. The background was defined as the fluorescence intensity of the samples supplemented with the mutant Aurora-A. FIG. 4E, inhibition of Aurora-A activity by staurosporine. The assays were performed using wild type or D274A mutant enzyme at 25 nM concentrations or 1.25 μM ADP. FIG. 4F, SDS-PAGE analysis of the recombinant GST-TPX2(1-50) and Aurora-A(101-403) (the latter protein was generated by cleavage of the GST fusion precursor with thrombin)."}, "Mst4 kinase": {"biological_target": "T2, Mst4 kinase (Homo sapiens, UniProt Q9P289)", "T2 construct": "SDS-PAGE analysis of GST-Mst4(1-317) purified from bacterial cells; made in house; host or cells: bacterial cells", "T2 sequence (Q9P289 1-317)": "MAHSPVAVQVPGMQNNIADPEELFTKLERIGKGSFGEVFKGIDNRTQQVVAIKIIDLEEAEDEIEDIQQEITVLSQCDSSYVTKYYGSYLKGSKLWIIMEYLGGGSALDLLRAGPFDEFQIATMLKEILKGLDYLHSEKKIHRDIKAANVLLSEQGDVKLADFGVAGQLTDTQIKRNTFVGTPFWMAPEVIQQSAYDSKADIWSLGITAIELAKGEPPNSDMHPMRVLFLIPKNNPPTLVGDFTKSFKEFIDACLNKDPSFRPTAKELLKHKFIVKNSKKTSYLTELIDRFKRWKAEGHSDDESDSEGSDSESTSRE", "assay": "High throughput assay for the Mst4 protein kinase activity", "assay_type": "biochemical", "settings": "FIG. 5C; 25 nM protein kinase; 1.25 μM ADP in control samples", "procedure": "High throughput assay for the Mst4 protein kinase activity. […] FIG. 5C, inhibition of Mst4 kinase by staurosporine. The assay was performed using 25 nM protein kinase. The combination of Mst4 and ATP was substituted with 1.25 μM ADP in control samples."}}, "data": [{"smiles": "CN[C@@H]1C[C@H]2O[C@@](C)([C@@H]1OC)n1c3ccccc3c3c4c(c5c6ccccc6n2c5c31)C(=O)NC4", "note": "[staurosporine]", "values": [{"measurement": "inhibition of Aurora-A activity", "setting": "Aurora-A", "value": "inhibition"}, {"measurement": "inhibition of Mst4 kinase", "setting": "Mst4 kinase", "value": "inhibition"}]}]}
